This passage reports IC50 and AC50 results from patent publication US9181266B2, “2-piperidin-1-yl-acetamide compounds for use as tankyrase inhibitors” (NOVARTIS AG, priority 2011, dated 2015).

Where only a bound is given, the exact number is not on record here.

By IC50 is commonly meant the concentration at which inhibition is half-maximal. Broadly, the AC50 is the concentration at which the activity in the assay is half-maximal.

One assay addresses Human PARP1 (Homo sapiens (Human), UniProt P09874). The experiment in a line: PARP1 autoparsylation assay (LC/MS detection of nicotinamide). In kind it is biochemical. As to conditions: 20 nM enzyme, 250 μM β-NAD+, 60 min. The procedure:
(§1) The autoparsylation activity of the TNKS 1/2 or PARP1/2 enzymes was measured by the liquid chromatography-mass spectrometry (LC/MS) detection of nicotinamide as readout. Compound activity in inhibiting the TNKS and PARP autoparsylation was evaluated by IC50 measurements.

For assay [1], the target named is tankyrase 2 protein PARP domain, TNKS2P (Homo sapiens (Human), UniProt Q9H2K2). The experiment in a line: TNKS2 autoparsylation assay (LC/MS detection of nicotinamide). The conditions noted are these: read-out: TNKS2 AP IC50, 20 nM enzyme, 250 μM β-NAD+, 60 min.
Sequence of tankyrase 2 protein PARP domain, TNKS2P (Q9H2K2 959-1164): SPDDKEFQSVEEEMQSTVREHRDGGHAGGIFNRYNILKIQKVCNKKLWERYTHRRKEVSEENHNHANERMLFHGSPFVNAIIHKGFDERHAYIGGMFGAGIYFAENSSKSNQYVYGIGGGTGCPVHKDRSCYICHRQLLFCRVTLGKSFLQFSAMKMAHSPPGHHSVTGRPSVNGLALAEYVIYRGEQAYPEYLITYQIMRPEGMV
For assay [2], the system named is Non-small lung cancer ABC-1 cells. Nature of the assay: Cellular proliferation assay (CellTiter-Glo). In kind it is cell-based. The conditions noted are these: Homo sapiens, 72 h; ABC-1 cells, 3 days of compound treatment; read-out: ABC-1 IC50. (ATP-based viability assays read luminescence as a measure of living cells.)
Experimental: Cellular Proliferation Assay to Determine Compound Inhibition of Cancer Cell Growth
Viable cells were measured after 3 days of compound treatment using the CellTiter-Glo assay (Promega, G7570). Assay was performed following the manufacture protocol.
The subject of assay [3] is Wnt ligand-induced signaling in HEK293 cells. Nature of the assay: Wnt-responsive Super-TOpFlash (STF) luciferase reporter gene assay. The assay is classed as cell-based. As to conditions: Homo sapiens, Wnt3A condition medium. The procedure, abridged: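 HEK293 cells (8000/well, 5% FBS medium) treated with 20% mouse L-cell Wnt3A conditioned medium plus compounds in 10-point serial dilution; luciferase read next day. Inhibition calculated relative to Wnt3A-induced signal without compound and background without Wnt3A CM or compound.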

In the next assay the target is PARP2 (Mus musculus (Mouse), UniProt O88554). The experiment in a line: PARP2 autoparsylation assay (LC/MS detection of nicotinamide). The assay is classed as biochemical. The conditions noted are these: 20 nM enzyme, 250 μM β-NAD+, 60 min. The procedure: as §1
Sequence of PARP2 (O88554 whole entry): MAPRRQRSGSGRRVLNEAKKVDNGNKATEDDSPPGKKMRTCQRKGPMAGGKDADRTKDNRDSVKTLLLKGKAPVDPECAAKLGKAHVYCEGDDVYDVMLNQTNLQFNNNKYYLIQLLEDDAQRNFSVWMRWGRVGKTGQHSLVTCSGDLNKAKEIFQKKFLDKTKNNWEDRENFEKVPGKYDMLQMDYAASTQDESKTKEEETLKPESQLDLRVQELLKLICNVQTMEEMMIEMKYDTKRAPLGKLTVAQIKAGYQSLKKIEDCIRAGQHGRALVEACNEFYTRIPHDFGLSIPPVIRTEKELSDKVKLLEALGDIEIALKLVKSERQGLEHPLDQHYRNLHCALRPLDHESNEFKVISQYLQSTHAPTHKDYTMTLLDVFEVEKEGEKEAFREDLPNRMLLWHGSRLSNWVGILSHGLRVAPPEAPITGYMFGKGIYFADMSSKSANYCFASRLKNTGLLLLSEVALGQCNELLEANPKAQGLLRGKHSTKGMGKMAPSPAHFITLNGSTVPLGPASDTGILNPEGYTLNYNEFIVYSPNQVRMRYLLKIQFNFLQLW
For assay [4], the system named is Axin2 protein in SW480 cells. Nature of the assay: Cellular ELISA assay of Axin2 protein stabilization. The assay is classed as cell-based. The conditions noted are these: Homo sapiens, 24 hrs, read-out: Axin AC50. A digest of the protocol:
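SW480 colorectal cells seeded overnight, treated with compound, then lysed. Axin2 in lysates measured by sandwich ELISA: anti-Axin2 capture antibody coated at 1 μg/ml (pH 9.2), lysate 2 h at room temperature, biotinylated anti-Axin2 detection 2 h, then streptavidin-HRP 30 min.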
A general note: An ELISA detects its analyte on a solid surface through an enzyme-linked reagent.

In assay [5] the target is human tankyrase 1 PARP catalytic domain, TNKS1P (Homo sapiens (Human), UniProt O95271). Nature of the assay: TNKS1 autoparsylation assay (LC/MS detection of nicotinamide). As to conditions: read-out: TNKS1 AP IC50, 20 nM enzyme, 250 μM β-NAD+, 60 min.
Sequence of human tankyrase 1 PARP catalytic domain, TNKS1P (O95271 1112-1317): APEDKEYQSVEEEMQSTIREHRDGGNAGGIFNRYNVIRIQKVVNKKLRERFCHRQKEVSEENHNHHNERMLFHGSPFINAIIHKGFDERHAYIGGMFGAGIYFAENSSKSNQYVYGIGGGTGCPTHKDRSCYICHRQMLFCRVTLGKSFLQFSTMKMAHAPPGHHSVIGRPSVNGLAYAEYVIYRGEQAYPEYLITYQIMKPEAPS

Sequence of Human PARP1 (P09874 whole entry): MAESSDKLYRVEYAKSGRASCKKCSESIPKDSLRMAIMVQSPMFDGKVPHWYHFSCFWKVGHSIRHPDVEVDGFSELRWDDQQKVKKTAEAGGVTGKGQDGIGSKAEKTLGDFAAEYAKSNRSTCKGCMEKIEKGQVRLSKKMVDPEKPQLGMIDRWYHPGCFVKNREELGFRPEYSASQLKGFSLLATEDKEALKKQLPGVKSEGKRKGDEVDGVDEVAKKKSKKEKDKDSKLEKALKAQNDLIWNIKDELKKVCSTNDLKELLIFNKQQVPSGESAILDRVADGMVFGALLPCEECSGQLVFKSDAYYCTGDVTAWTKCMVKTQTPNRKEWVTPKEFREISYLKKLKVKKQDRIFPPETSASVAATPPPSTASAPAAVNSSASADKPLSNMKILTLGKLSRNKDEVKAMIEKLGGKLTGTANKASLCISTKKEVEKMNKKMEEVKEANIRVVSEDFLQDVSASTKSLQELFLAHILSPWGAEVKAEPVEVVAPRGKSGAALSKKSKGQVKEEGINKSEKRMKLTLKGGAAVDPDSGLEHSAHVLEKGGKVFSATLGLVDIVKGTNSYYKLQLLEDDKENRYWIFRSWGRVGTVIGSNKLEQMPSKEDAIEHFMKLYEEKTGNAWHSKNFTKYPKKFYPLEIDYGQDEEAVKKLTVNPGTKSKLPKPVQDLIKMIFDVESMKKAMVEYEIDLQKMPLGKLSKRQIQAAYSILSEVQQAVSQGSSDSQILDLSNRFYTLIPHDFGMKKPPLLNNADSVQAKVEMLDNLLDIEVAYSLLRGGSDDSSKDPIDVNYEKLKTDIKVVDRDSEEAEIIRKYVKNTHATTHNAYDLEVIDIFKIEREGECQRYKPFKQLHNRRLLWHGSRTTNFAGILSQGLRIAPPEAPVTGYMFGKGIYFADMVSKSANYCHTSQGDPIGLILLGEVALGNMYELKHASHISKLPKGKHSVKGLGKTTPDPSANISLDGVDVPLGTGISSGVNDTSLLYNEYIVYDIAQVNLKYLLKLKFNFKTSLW

On to `CC(c1cccs1)N(Cc1nc2c(c(=O)[nH]1)COCC2)C(=O)CN1CCC(C(=O)c2ccc(F)cc2)CC1` (stereo not drawn) [Example 49, 2-[4-(4-Fluoro-benzoyl)-piperidin-1-yl]-N-(4-oxo-3,5,7,8-tetrahydro-4H-pyrano[4,3-d]pyrimidin-2-ylmethyl)-N-(1-thiophen-2-yl-ethyl)-acetamide], for which the IC50 against Human PARP1 is > 19000 nM; in assay [1] it was 16.5 ± 0.7 nM; in assay [2], 170 nM; in assay [3], 16 ± 4 nM; on PARP2, > 19000 nM; in assay [5], 47.5 ± 3.5 nM. Besides, the concentration at half-maximal activity (AC50) in assay [4] was found to be 86 ± 3 nM.
Consider `COc1ccc(C(=O)C2CCN(CC(=O)N(Cc3nc4c(c(=O)[nH]3)COCC4)CC(F)F)CC2)cc1` [Example 50, N-(2,2-Difluoro-ethyl)-2-[4-(4-methoxy-benzoyl)-piperidin-1-yl]-N-(4-oxo-3,5,7,8-tetrahydro-4H-pyrano[4,3-d]pyrimidin-2-ylmethyl)-acetamide], for which the IC50 at Human PARP1 is > 19000 nM; in assay [1], 12 ± 1 nM; in assay [2], 45 nM; in assay [3], 9.5 ± 0.5 nM; at PARP2 it was > 19000 nM; in assay [5], 18 ± 7 nM. The AC50 in assay [4] is 30 ± 6 nM.
Regarding `COCCN(Cc1nc2c(c(=O)[nH]1)COCC2)C(=O)CN1CCC(C(=O)c2ccc(OC)cc2)CC1` [Example 54, 2-[4-(4-Methoxy-benzoyl)-piperidin-1-yl]-N-(2-methoxy-ethyl)-N-(4-oxo-3,5,7,8-tetrahydro-4H-pyrano[4,3-d]pyrimidin-2-ylmethyl)-acetamide], the 50% inhibitory concentration (IC50) is > 19000 nM at Human PARP1; 14 ± 3 nM in assay [1]; 1840 nM in assay [2]; 91 ± 13 nM in assay [3]; > 19000 nM at PARP2; 35 ± 6 nM in assay [5]. Also, the AC50 in assay [4] was 1200 ± 100 nM.
Consider `COc1ccc(C(=O)C2CCN(CC(=O)NCc3nc4c(c(=O)[nH]3)COCC4)CC2)cc1` [Example 67, 2-(4-(4-Methoxybenzoyl)piperidin-1-yl)-N-((4-oxo-4,5,7,8-tetrahydro-3H-pyrano[4,3-d]pyrimidin-2-yl)methyl)acetamide], for which the IC50 was 10000 ± 3200 nM at Human PARP1; 12 ± 2 nM in assay [1]; 45 nM in assay [2]; 5.3 ± 4.1 nM in assay [3]; 3640 ± 630 nM on PARP2; 28 ± 6 nM in assay [5]. Further, the AC50 in assay [4] is 16 ± 3 nM.
Take `O=C(c1ccc(OC(F)(F)F)cc1)C1CCN(CC(=O)N(Cc2nc3c(c(=O)[nH]2)COCC3)CC2CC2)CC1` [Example 70, N-Cyclopropylmethyl-N-(4-oxo-3,5,7,8-tetrahydro-4H-pyrano[4,3-c]pyrimidin-2-ylmethyl)-2-[4-(4-trifluoromethoxy-benzoyl)-piperidin-1-yl]-acetamide]: the concentration for half-maximal inhibition (IC50) at Human PARP1 is > 19000 nM; in assay [1], 8 nM; in assay [2], 392 nM; in assay [3], 8 ± 1.6 nM; on PARP2 it was > 19000 nM; in assay [5] it was 37 ± 2 nM. In addition, in assay [4], the AC50 stood at 135 ± 7 nM.
Take `O=C(c1ccc(OC(F)(F)F)cc1)C1CCN(CC(=O)N(Cc2nc3c(c(=O)[nH]2)COCC3)CC(F)F)CC1` [Example 71, N-(2,2-Difluoro-ethyl)-N-(4-oxo-3,5,7,8-tetrahydro-4H-pyrano[4,3-d]pyrimidin-2-ylmethyl)-2-[4-(4-trifluoromethoxy-benzoyl)-piperidin-1-yl]-acetamide]: the IC50 is > 19000 nM at Human PARP1; 15 ± 1 nM in assay [1]; 100 nM in assay [2]; 17.5 ± 6.6 nM in assay [3]; 11760 ± 50 nM against PARP2; 43 ± 1 nM in assay [5]. Also, in assay [4], the AC50 was 58 ± 12 nM.
On to `CC#CCOc1ccc(C(=O)C2CCN(CC(=O)N(Cc3nc4c(c(=O)[nH]3)COCC4)CC3CC3)CC2)cc1` [Example 78, 2-[4-(4-But-2-ynyloxy-benzoyl)-piperidin-1-yl]-N-cyclopropylmethyl-N-(4-oxo-3,5,7,8-tetrahydro-4H-pyrano[4,3-d]pyrimidin-2-ylmethyl)-acetamide], for which the IC50 on Human PARP1 was 14700 ± 4600 nM; in assay [1], 15 ± 2 nM; in assay [2] it was 2010 nM; in assay [3] it was 155 ± 8 nM; against PARP2, > 19000 nM; in assay [5], 29 ± 2 nM. The AC50 in assay [4] was determined as 1920 ± 240 nM.
With `Cc1ccc(C(=O)C2CCN(CC(=O)NCc3nc4c(c(=O)[nH]3)COCC4)CC2)cc1` [Example 83, 2-[4-(4-Methyl-benzoyl)-piperidin-1-yl]-N-(4-oxo-3,5,7,8-tetrahydro-4H-pyrano[4,3-d]pyrimidin-2-ylmethyl)-acetamide], the IC50 was 8300 ± 3000 nM on Human PARP1; 18 ± 2 nM in assay [1]; > 10000 nM in assay [2]; > 10000 nM in assay [3]; 2300 ± 360 nM at PARP2; 64 nM in assay [5]. Moreover, the AC50 in assay [4] is > 10000 nM.
For `CCCOc1ccc(C(=O)C2CCN(CC(=O)NCc3nc4c(c(=O)[nH]3)COCC4)CC2)cc1` [Example 84, N-(4-Oxo-3,5,7,8-tetrahydro-4H-pyrano[4,3-d]pyrimidin-2-ylmethyl)2-[4-(4-propoxy-benzoyl)-piperidin-1-yl]acetamide], the half-inhibitory concentration (IC50) at Human PARP1 stood at 4800 ± 250 nM; in assay [1], 13 ± 2 nM; in assay [2] it was 301 nM; in assay [3] it was 11 ± 3 nM; at PARP2, 2130 ± 440 nM; in assay [5], 23 ± 5 nM. Also, in assay [4], the half-maximal activity concentration (AC50) amounted to 162 ± 19 nM.
Consider `O=C(CN1CCC(C(=O)c2ccc(OCC3CC3)cc2)CC1)NCc1nc2c(c(=O)[nH]1)COCC2` [Example 85, 2-[4-(4-Cyclopropylmethoxy-benzoyl)-piperidin-1-yl]-N-(4-oxo-3,5,7,8-tetrahydro-4H-pyrano[4,3-d]pyrimidin-2-ylmethyl)-acetamide], for which the IC50 is 4500 ± 580 nM against Human PARP1; 10 ± 2 nM in assay [1]; 34 nM in assay [2]; 5.2 ± 0.1 nM in assay [3]; 1970 ± 260 nM on PARP2; 23 ± 2 nM in assay [5]. Besides, the AC50 in assay [4] amounted to 15 ± 2 nM.
In the case of `O=C(CN1CCC(C(=O)c2ccc(OCC3CCC3)cc2)CC1)NCc1nc2c(c(=O)[nH]1)COCC2` [Example 86, 2-[4-(4-Cyclobutylmethoxy-benzoyl)-piperidin-1-yl]-N-(4-oxo-3,5,7,8-tetrahydro-4H-pyrano[4,3-d]pyrimidin-2-ylmethyl)-acetamide], the IC50 worked out at 2050 ± 370 nM on Human PARP1; 12 ± 1 nM in assay [1]; 41 nM in assay [2]; 820 ± 410 nM in assay [3]; 885 ± 37 nM against PARP2; 30 ± 3 nM in assay [5]. Also, the concentration at half-maximal activity (AC50) in assay [4] is 29 ± 8 nM.
In the case of `O=C(CN1CCC(C(=O)c2ccc(OC3CCOCC3)cc2)CC1)NCc1nc2c(c(=O)[nH]1)COCC2` [Example 87, N-(4-Oxo-3,5,7,8-tetrahydro-4H-pyrano[4,3-d]pyrimidin-2-ylmethyl)-2-{4-[4-(tetrahydro-pyran-4-yloxy)-benzoyl]-1-yl}-acetamide], the IC50 at Human PARP1 was 5800 ± 1300 nM; in assay [1], 29 nM; in assay [2], 32 nM; in assay [3] it was 14 ± 1 nM; against PARP2 it was 2840 ± 330 nM; in assay [5], 67 ± 4 nM. Further, in assay [4], the AC50 came out at 40 ± 6 nM.
With `COCCOc1ccc(C(=O)C2CCN(CC(=O)NCc3nc4c(c(=O)[nH]3)COCC4)CC2)cc1` [Example 88, 2-{4-[4-(2-Methoxy-ethoxy)-benzoyl]-piperidin-1-yl}-N-(4-oxo-3,5,7,8-tetrahydro-4H-pyrano[4,3-d]pyrimidin-2-ylmethyl)-acetamide], the IC50 against Human PARP1 was found to be 6800 ± 2000 nM; in assay [1], 6 nM; in assay [2], 87 nM; in assay [3], 21 ± 5 nM; against PARP2, 2370 ± 520 nM; in assay [5] it was 26 ± 1 nM. The AC50 in assay [4] came to 69 ± 7 nM.
Regarding `O=C(CN1CCC(C(=O)c2ccc(OCCC3CC3)cc2)CC1)NCc1nc2c(c(=O)[nH]1)COCC2` [Example 89, 2-{4-[4-(2-Cyclopropyl-ethoxy)-benzoyl]-piperidin-1-yl}-N-(4-oxo-3,5,7,8-tetrahydro-4H-pyrano[4,3-d]pyrimidin-2-ylmethyl)-acetamide], the half-inhibitory concentration (IC50) worked out at 1750 ± 20 nM against Human PARP1; 12 ± 2 nM in assay [1]; 87 nM in assay [2]; 17 ± 4 nM in assay [3]; 920 ± 340 nM against PARP2; 21 ± 2 nM in assay [5]. The AC50 in assay [4] worked out at 52 ± 2 nM.
In the case of `O=C(CN1CCC(C(=O)c2ccc3c(c2)CCO3)CC1)NCc1nc2c(c(=O)[nH]1)COCC2` [Example 91, 2-[4-(2,3-Dihydro-benzofuran-5-carbonyl)-piperidin-1-yl]-N-(4-oxo-3,5,7,8-tetrahydro-4H-pyrano[4,3-c]pyrimidin-2-ylmethyl)-acetamide], the IC50 at Human PARP1 is 16700 ± 400 nM; in assay [1] it was 20 nM; in assay [2] it was 116 nM; in assay [3], 10 ± 7 nM; against PARP2, 4530 ± 70 nM; in assay [5], 40 ± 10 nM. The AC50 in assay [4] is 53 ± 25 nM.
